{"source": "paper PMC7804942", "about": "“The amphibian peptide Yodha is virucidal for Zika and dengue viruses” (Scientific Reports, 2021)", "key": {"ZIKV": {"system": "ZIKV", "assay": "ZIKV neutralisation by mutant, enantiomer and variant peptides (strain not stated)", "type": "cell-based, Zika virus", "description": "To further characterize Yodha peptide, we generated alanine-scanning mutants of the peptide, which removes the side chain, but maintains peptide conformation, allowing for the assessment of the significance of each amino acid within the larger structure (Fig. 4A). Each of 23 mutated peptides was tested for its (a) ability to neutralize ZIKV (Fig. 4B) and (b) toxicity against human RBC, if any (Fig. 4C).\nSo next, we sought to determine how common this peptide or its analogs are in host defense peptides isolated from elsewhere in the world. […] We then determined the extent to which any of these variant peptides can neutralize ZIKV. […] We also generated a series of mutant Yodha peptides, including one which lacks the C terminal DDQERC, a short 12 peptide fragment that lacks the EEERGA from variant #12, and a S1P peptide that replace S1-P in the full-length Yodha (Fig. 5D) and tested their activity against ZIKV (Fig. 5D).\n(§1) Peptides were incubated with ZIKV (100 FFU/well) for 2 h at 37 °C. This incubated mixture was used to infect Vero cells for 1.5 h at 37 °C. Cells and inoculum were overlaid with 2% methylcellulose solution (OptiMEM; Gibco) and incubated for 72 h at 37 °C. Cells were washed with PBS and fixed with a 1:1 methanol/acetone mixture for 30 min. Cells were blocked with 5% milk/PSB at room temperature for 20 min and incubated with primary antibody (anti-flavivirus mouse 4G2[10] antibody) for 2 h at 37 °C. Then, cells were incubated with secondary antibody (HRP-conjugated goat anti-mouse IgG, Cell Signaling) for 1 h at 37 °C. Cells were developed with TrueBlue Peroxidase Substrate (KPL). Plates were read on a CTL-ImmunoSpot S6 Micro analyzer."}, "DENV3": {"system": "DENV3", "conditions": "FFA", "description": "Dengue virus strains 1, 2, 3 and 4 were treated with wither Yodha or control OVA peptide at (A) 50 µM (B) 160 µM concentration and the % of viral focus forming units were determined. (C) IC50 measurement of Yodha in DENVs infection by FFA. […] OVA peptide was used a negative control.\nas §1"}}, "note": "Where no end group is shown, it is not given here."}
{"sequence": "PMLLLFFLGTISLSLCQ [truncated Yodha variant 12]", "values": [{"measurement": "activity of truncated and S1P mutant peptides against ZIKV versus WT Yodha", "setting": "ZIKV", "value": "significantly improved activity"}, {"measurement": "efficiency against DENV3 compared to the full length Yodha peptide", "setting": "DENV3; dose escalation", "value": "very efficient"}, {"measurement": "IC50", "setting": "DENV3; read-out: IC50 for DENV3", "value": 30, "unit": "µM"}]}
{"sequence": "PMLLLFFLGTISLSLCQEEERGA [variant #12, brevinin-2KK2, naturally occurring variant of Yodha from Rana kukunoris]", "values": [{"measurement": "increased effect against ZIKV than Yodha peptide", "setting": "ZIKV", "value": 1.6, "unit": "fold"}]}
{"sequence": "PMLLLFFLGTISLSLCQEERGA [variant 21, naturally occurring variant of Yodha isolated from the frog I. temporalis]", "values": [{"measurement": "virucidal activity of naturally occurring variants against ZIKV", "setting": "ZIKV", "value": "exhibited activity"}]}
